# Experimental data taken from publication PMC10221222 (Pharmaceutics, 2023).
# Like-named read-outs stand apart in the source and are kept apart here.
# Assays:
# [1] = tested on: A549 (non-small cell lung cancer); conditions: MTT, 96 h exposure; cited from earlier work
# [2] = tested on: CH1/PA-1 (ovarian teratocarcinoma); conditions: MTT, 96 h exposure; cited from earlier work
# SW480 (colon carcinoma) [3] = conditions: MTT, 96 h exposure; cited from earlier work
# [4] = tested on: CH1/PA-1 (ovarian teratocarcinoma); experiment: MTT cytotoxicity assay, 96 h exposure, CH1/PA-1 cells; format: cell-based, human; conditions: pertains to dendrimer concentration for C1–C24
# Method: (§1) Culture of and 96 h cytotoxicity tests in the human cell lines CH1/PA-1 (ovarian teratocarcinoma), SW480 (colon carcinoma) and A549 (non-small cell lung cancer) were performed as described previously, with the exception that test compounds were dissolved either in sterile water or supplemented MEM and then serially diluted in the latter medium.
# (§2) Three human cancer cell lines differing in their chemosensitivity were employed for testing the cytotoxic potencies of all compounds: the broadly sensitive ovarian teratocarcinoma cell line CH1/PA-1, the multidrug-resistant non-small cell lung cancer cell line A549 and the colon cancer cell line SW480 with mostly intermediate sensitivity.
# [5] = Reduction by ascorbic acid followed by time-dependent 1H NMR; format: physicochemical; conditions: for Reduction Half-Time: 1 mM Pt, 25 eq. ascorbic acid, phosphate-buffered D2O pD 7.4, ambient temperature; for percentage of the reduced species when measurement was stopped before the half-time: 1:25 ascorbic acid, pD 7.4, ambient temperature, at the time given as bound of the half-time
# Method: The reduction of platinum(IV) complexes and representatives of each series of conjugates by ascorbic acid was observed by ^1H NMR spectroscopic measurements at ambient temperature. An amount of 1 mM solutions of platinum(IV) complexes 1–3, 5–7 as well as of the conjugates C2, C11, C13, C22–C24 referred to their corresponding platinum units were prepared in a D2O phosphate-buffered solution (50 mM) at physiological pD = 7.4. Afterwards, ascorbic acid was added as a reducing agent (25 mM, 25 eq.) and ^1H NMR measurements were performed for several days. The reduction behavior for substances 1–3, 5, 6, C2, C11, C13, C22, C23 was monitored by the resulting decrease in intensity of the acetato signal (release of acetic acid). The percentage of reduced species was determined by using the integration ratios of these two signals. Contrarily, ratios of signals of the succinato ligands and free succinic acid were consulted for the reduction determination of substances 7 and C24. However, the reduction half-time of C24 could not be obtained due to the superimposition of the succinato peaks with other signals.
# Moreover, the reduction behavior of conjugates in comparison to unattached platinum(IV) complexes was investigated by time-dependent ^1H NMR spectroscopy (Table 3). In general, the reduction behavior is influenced by the nature of the ligands coordinated to the platinum(IV) core. […] In accordance with previous studies, the cisplatin core of substance 1 led to a faster reduction with a reduction half-time of 6 h, whereas only 6% of the carboplatin(IV) analog 2 was reduced after 95 h. Similar to complex 1, the two chlorido ligands of compound 6 allow fast electron transfer, thereby supporting rapid reduction. […] A potential connection between bulkiness and facilitated reduction has been reported in the literature. As further expected, the influence between G2 and G4 dendrimers on the reduction behavior is marginal due to the huge distance to the platinum(IV) core. Therefore, no significant difference in the rate of reduction between conjugates of G2 and G4 dendrimers was observed based on the measurements of C2 and C13, respectively.
# SW480 (colon carcinoma) [6] = experiment: MTT cytotoxicity assay, 96 h exposure, SW480 cells; format: cell-based, human; conditions: pertains to dendrimer concentration for C1–C24
# Method: as §1
# as §2, with “sensitivity. This pattern of sensitivity also reflects throughout the data compiled here.” for “sensitivity.”
# [7] = tested on: A549 (non-small cell lung cancer); experiment: MTT cytotoxicity assay, 96 h exposure, A549 cells; format: cell-based, human; conditions: pertains to dendrimer concentration for C1–C24
# Method: as §1
# as §2, with “sensitivity. This pattern of sensitivity also reflects throughout the data compiled here.” for “sensitivity.”
# [8] = Tumor, organ and blood distribution of platinum by ICP-MS; format: in vivo, male CT26-allograft-bearing BALB/c mice; conditions: 24 h after second application
# Method: Blood was taken after 30 min and 24 h after the first application from the facial vein and terminally by cardiac puncture 24 h after the second application. To separate serum from blood pellet, blood was twice spun down at 900 g for 10 min at 4 °C. The platinum amount of all samples was measured by ICP-MS.
# Renal excretion and glomerular filtration are typical for ≤G4 PAMAM dendrimers and in general for nanoparticles smaller than 5 nm. […] Additionally, the influence of the molecular weight of nanoparticles on the biodistribution behavior was reported previously. […] On the contrary, the efficient kidney accumulation of this dendrimer preparation might also be considered in kidney-specific drug delivery approaches.
# [9] = set-up: method as in PMID 10222430; conditions: cited from earlier work
# [10] = tested on: CT26 murine colon cancer allograft; experiment: Efficacy study in CT26-allograft-bearing mice (tumor volume, survival); format: in vivo, BALB/c mice; conditions: vs solvent control; i.v. twice a week for two weeks; C12 7.5 mg/kg, cisplatin 3 mg/kg
# Method: All drugs were dissolved in 0.9% NaCl.
# The promising effects further translate into a prolongation trend of animal survival (Figure 4). While in the cisplatin group, weight loss was critical in addition to tumor necrosis, even smaller tumors tended to get necrotic and broke up in C12-treated animals, making the sacrifice of the animals necessary due to ethical guidelines.
# [11] = tested on: CT26 murine colon cancer cells; experiment: MTT assay in murine cell line CT26; format: cell-based; conditions: 72 h exposure
# Method: The MTT assay in the murine cell line CT26 was performed as described in [25].
# cells, obtained by MTT assays with 72 h exposure time.
Compound,IC50 [1],IC50 [2],IC50 (SW480 (colon carcinoma) [3]),IC50 [4],Reduction Half-Time [5],IC50 (SW480 (colon carcinoma) [6]),IC50 [7],platinum content of blood cells ([8]; 30 min and 24 h after first),platinum levels in lung tissue [8],maximum tolerated dosage [9],maximum tumor growth inhibition effect [10],IC50 [11],percentage of the reduced species when measurement was stopped before the half-time [5]
"N.N.O=C([O-])C1(C(=O)[O-])CCC1.[Pt+2] [Carboplatin, reference compound]",38 ± 3 µM,0.79 ± 0.11 µM,42 ± 10 µM,,,,,,,,,,
"(OC-6-44)-(3-carboxypropanoato)(1R,2R-cyclohexanem-1,2-diamine)hydroxidooxalatoplatinum(IV) [Complex 7]",,,,5.2 ± 0.8 µM,~29 h,20 ± 3 µM,66 ± 2 µM,,,,,,
N.N.[Cl][Pt][Cl] [Cisplatin],3.8 ± 1 µM,0.073 ± 0.001 µM,2.3 ± 0.2 µM,,,,,blood cells contained enhanced platinum contents,higher levels were detected in lung tissue,3 mg/kg,47.6%,1.85 µM,
"(OC-6-44)-Acetato(3-carboxypropanoato)(1R,2R-cyclohexane-1,2-diamine)oxalatoplatinum(IV) [Complex 3]",70 ± 29 µM,4.1 ± 0.6 µM,22 ± 8 µM,,> 165 h,,,,,,,,14%
"(OC-6-44)-Acetato(3-carboxypropanoato)dichlorido(1R,2R-cyclohexane-1,2-diamine)platinum(IV) [Complex 6]",,,,0.44 ± 0.1 µM,~27 h,0.85 ± 0.14 µM,2.8 ± 0.1 µM,,,,,,
"(OC-6-44)-Acetaodiammine(3-carboxypropanoato)(cyclobutane-1,1-dicarboxylato)platinum(IV) [Complex 2]",> 200 µM,16 ± 6 µM,> 200 µM,,> 95 h,,,,,,,,6%
"(OC-6-54)-Acetato(3-carboxypropanoato)(^13C2)oxalato(1R,2R,4R/1S,2S,4S)-(4-trifluoromethyl-cyclohexane-1,2-diamine)platinum(IV) [Complex 5]",,,,6 ± 0.9 µM,> 93 h,33 ± 5 µM,54 ± 6 µM,,,,,,~23%
(OC-6-44)-Acetatodiammine(3-carboxypropanoato)dichloridoplatinum(IV) [Complex 1],99 ± 17 µM,1.2 ± 0.5 µM,47 ± 11 µM,,~6 h,,,,,,,,
"O=C1[O][Pt]2([NH][C@@H]3CCCC[C@H]3[NH]2)[O]C1=O [Oxaliplatin, reference compound]",0.98 ± 0.21 µM,0.18 ± 0.01 µM,0.29 ± 0.05 µM,,,,,,,,,,
